Literature values in patent US20060173179A1, “Azabenzoxazoles for the treatment of CNS disorders” (Pfizer Inc, priority 2004, published 2006).

Key:
[1] = not given; remark: listed apart in the source

half-life (in vivo): 6 to 7 h | Oral bioavailability (taken with food): approximately 60% | protein binding [1]: extensive
Structure (SMILES): O=C1Cc2cc(CCN3CCN(c4nsc5ccccc45)CC3)c(Cl)cc2N1 [Ziprasidone, 5-[2-[4-(1,2-benzisothiazol-3-yl)piperazin-1-yl]ethyl]-6-chloroindolin-2-one]
